The source of these data is patent US20230390274A1 (EPIRIUM BIO INC., priority 2020, published 2023).

The nature of series [1]: Compound stability in mouse liver microsomes. Conditions: 37° C. In kind it is in vitro ADME. The method, then:
A microsomal mixture comprising mouse liver microsomes and a potassium phosphate buffer was prepared at a concentration of 1.428 mg/mL in 2 mL tubes. 1.6 μL of test compound or imipramine as a positive control was added to the mixture, and 70 μL was transferred to a 96 well plate and pre-incubated at 37° C. for 5 minutes. After pre-incubation, […] 30 μL of NADPH (3.33 mM in potassium phosphate buffer) was added. The reaction mixtures were incubated at 37° C. for 15 and 45 minutes. Reactions without NADPH and buffer controls (minus NADPH) were conducted to rule out non-NADPH metabolism and chemical instability in the incubation buffer. The reactions were quenched with 100 μL ice cold acetonitrile containing an internal standard. The plates were centrifuged at 4000 RPM for 15 minutes and 100 μL aliquots were analyzed for parent compound disappearance by LC-MS/MS. The peak area ratios of analyte versus internal standard were used to calculate the percent remaining at the end of 45 minutes.

Series [2] in a line: Pharmacokinetic study in rat, intravenous 1 mg/kg. In kind it is in vivo. Here is the method: (§1) Each mice PK study consisted of nine male C57BL/6 mice per group with sparse sampling design (n=3 mice per time point). The animals from intravenous groups were dosed with solution formulation of compounds via tail vein at 1 mg/kg dose. Ten compounds were screened in mice and one compound (the compound of Formula IV) was dosed in rat (n=3; serial sampling) following intravenous dose administration at 1 mg/kg dose. The solution formulation for compounds was prepared in 5% v/v DMA, 25% v/v PEG-400, and 70% v/v HPBCD (30% w/v); 15% v/v DMA, 5% Solutol HS-15, and 80% 1:1 PEG-300: Normal saline (2.25%); or 10% v/v DMA, 25% PEG-400, and 65% HPBCD (30% w/v solution). The dosing volume was 1 and 5 mL/kg for intravenous dose in rat and mice respectively. Blood samples (approximately 60 μL from mice and 120 μL from rats) were collected under light isoflurane anesthesia from a set of three mice at 0, 0.08, 0.25, 0.5, 1, 2, 4, 8, 12, and 24 hours post-dose. Plasma was harvested by centrifugation of blood and stored at −70±10° C. until analysis. Fit-for purpose LC-MS/MS method was developed and samples were processed by protein precipitation method. Non-Compartmental-Analysis tool of Phoenix WinNonlinR (Version 8.0) was used to assess the pharmacokinetic parameters. The areas under the concentration time curve (AUClast and AUCinf) were calculated by linear trapezoidal rule. The terminal elimination rate constant, Ke was determined by regression analysis of the linear terminal portion of the log plasma concentration-time curve. The terminal half-life (T1/2) was estimated at 0.693/ke. CLIV=Dose/AUCinf; Vss=MRT×CLIV.

Series [3] can be described thus: Pharmacokinetic study in mice, intravenous 1 mg/kg. In kind it is in vivo, C57BL/6 mice. The method, then: as §1
The nature of series [4]: Solubility at pH 7.4. Conditions: aqueous buffer, Table 1, 6-5 ring core. Format: physicochemical.
The target in series [5] is 15-PGDH/HPGD (Homo sapiens (Human), UniProt P15428). The series can be described thus: hPGDH inhibitor screening biochemical assay. Conditions: read-out: hPGDH: IC50. Summed up:
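10 nM recombinant 15-PGDH was preincubated with compound (10-point) for 10 min at 37° C. in 50 mM Tris-HCl pH 7.5, 0.01% Tween 20. Then 15 μM PGE2 and 0.25 mM NAD+ were added for 10 min at rt. NADH fluorescence (ex/em 340/485 nm) gave % inhibition versus 1% DMSO and a four-parameter IC50.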

Setting [6] is: Table 1, PGDH inhibitors with a 6-5 ring core.
Setting [7] is: Table 2, PGDH inhibitors with a phenyl core.

The structures appear in SMILES notation. pIC50: −log10 of the molar value. In brackets after ≈: the same amount, converted by molar mass. Where two headings read alike, the source gives them in different places.

Sequence of 15-PGDH/HPGD (P15428 whole entry): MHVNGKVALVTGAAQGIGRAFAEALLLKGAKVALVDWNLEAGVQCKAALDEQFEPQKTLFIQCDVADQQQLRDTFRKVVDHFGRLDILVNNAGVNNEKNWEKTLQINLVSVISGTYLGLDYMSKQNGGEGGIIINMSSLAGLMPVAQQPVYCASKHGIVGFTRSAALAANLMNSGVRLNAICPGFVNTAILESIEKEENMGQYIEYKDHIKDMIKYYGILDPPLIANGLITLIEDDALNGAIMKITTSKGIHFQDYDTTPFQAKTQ

One may read the Vss as a proportionality between amount in the body and measured concentration, not a real space. In the case of `O=C(c1cnc2c(ccn2-c2ccc(CO)cc2)c1)N1CCCCC1` [Formula IV], the “% Remaining at 45 Minutes (Mouse Liver Microsomes + NADPH)” value (from here on “% Remaining at 45 Minutes”) in series [1] is 71%. In series [2], this compound came in with an AUCinf of 106.55 ng·h/mL, an AUClast of 105.58 ng·h/mL, a C0/Cmax of 985.98 ng/mL and a CL of 158.60 mL/min/kg. In series [2], this compound came in with a T1/2 of 7.2 min and a distribution volume (Vss) of 0.86 L/kg.

With `NC(=O)c1ccc(-n2ccc3cc(C(=O)N4CCC(F)CC4)cnc32)cc1` [Formula IX], in series [3], the AUCinf worked out at 156.23 ng·h/mL, the AUClast turned out to be 156.13 ng·h/mL, the C0/Cmax turned out to be 749.07 ng/mL and the CL is on record as 106.68 mL/min/kg. For the same compound, in series [3], the T1/2 stood at 12 min and the distribution volume (Vss) came to 1.52 L/kg. Also, the “% Remaining at 45 Minutes” value in series [1] worked out at 70%.

In series [3], `CNC(=O)c1ccc(-n2ccc3cc(C(=O)N4CCCCC4)cnc32)cc1` [Formula VIII] gave an AUCinf of 156.49 ng·h/mL, an AUClast of 156.43 ng·h/mL, a C0/Cmax of 1012.93 ng/mL and a CL of 106.5 mL/min/kg. In series [3], the T1/2 turned out to be 26.4 min and the Vss stood at 1.58 L/kg. Besides, the “% Remaining at 45 Minutes” value in series [1] amounted to 80%.

In series [3], `CNC(=O)c1ccc(-n2ccc3cc(C(=O)N4CCC(F)CC4)cnc32)cc1` [Formula VII] registered an AUCinf of 214.11 ng·h/mL, an AUClast of 211.95 ng·h/mL, a C0/Cmax of 633.31 ng/mL and a CL of 77.84 mL/min/kg. In series [3], the T1/2 came out at 20.4 min and the Vss is listed as 1.56 L/kg. The “% Remaining at 45 Minutes” value in series [1] came out at 88%.

For `Cc1c(C(=O)N2CCC(F)CC2)cnc2c1ccn2-c1ccc(C(N)=O)cc1` [Formula VI], in series [3], the AUCinf amounted to 259.43 ng·h/mL, the AUClast was 256.19 ng·h/mL, the C0/Cmax is recorded as 571.21 ng/mL and the CL is on record as 64.24 mL/min/kg. Besides, in series [3], the T1/2 is 42 min and the Vss stood at 2.52 L/kg. Further, in series [1], the “% Remaining at 45 Minutes” value is on record as 89%.

In series [3], `CN(C)C(=O)c1ccc(-n2ccc3cc(C(=O)N4CCCCC4)cnc32)cc1` [Formula V] gave an AUCinf of 263.35 ng·h/mL, an AUClast of 262.46 ng·h/mL, a C0/Cmax of 1442.49 ng/mL and a CL of 63.29 mL/min/kg. In addition, in series [3], the T1/2 was found to be 18 min and the Vss was found to be 0.76 L/kg. The “% Remaining at 45 Minutes” value in series [1] was 86%.

Regarding `NC(=O)c1ncc(-n2ccc3cc(C(=O)N4CCCCC4)cnc32)cn1` [Formula XII], in series [3], the AUCinf amounted to 129.4 ng·h/mL, the AUClast worked out at 117.19 ng·h/mL, the C0/Cmax was 490.48 ng/mL and the CL was determined as 128.8 mL/min/kg. In series [3], the T1/2 was determined as 38.4 min and the Vss stood at 5.16 L/kg. In addition, in series [1], the “% Remaining at 45 Minutes” value was found to be 81%.

In series [3], `O=C(c1cnc2c(ccn2-c2ccc(O)nc2)c1)N1CCCCC1` [Formula XIV] came in with an AUCinf of 96.33 ng·h/mL, an AUClast of 88.28 ng·h/mL, a C0/Cmax of 165.86 ng/mL and a CL of 173.02 mL/min/kg. In series [3], this compound gave a T1/2 of 16.2 min and a Vss of 3.99 L/kg. Also, the “% Remaining at 45 Minutes” value in series [1] is listed as 74%.

Consider `COCCNC(=O)c1ccc(-n2ccc3cc(C(=O)N4CCC(F)CC4)cnc32)cc1` [Formula XI], for which, in series [3], the AUCinf stood at 131.66 ng·h/mL, the AUClast worked out at 130.44 ng·h/mL, the C0/Cmax is 663.41 ng/mL and the CL was 126.59 mL/min/kg. For the same compound, in series [3], the T1/2 is 9.6 min and the Vss was determined as 1.39 L/kg. Moreover, the “% Remaining at 45 Minutes” value in series [1] amounted to 84%.

As to `COCCNC(=O)c1ccc(-n2ccc3cc(C(=O)N4CCCCC4)cnc32)cc1` [Formula X], in series [3], the AUCinf amounted to 147.4 ng·h/mL, the AUClast was found to be 146.28 ng·h/mL, the C0/Cmax is reported as 1272.79 ng/mL and the CL is 113.07 mL/min/kg. In series [3], the T1/2 worked out at 4.2 min and the Vss was determined as 0.58 L/kg. For the same compound, the “% Remaining at 45 Minutes” value in series [1] amounted to 89%.

The solubility is the concentration that dissolves in the medium under given conditions. As usually defined, the pIC50 is −log10 of the IC50, conventionally taken in molar units. `O=C(c1cnc2c(c1)ncn2-c1cccc(Cl)c1)N1CCCCC1` [drawing 103]: the solubility in series [4] turned out to be 21 µM (≈ 7.16 µg/mL). Moreover, the pIC50 in series [5] (setting [6]) was 8.82.

As to `O=C(c1ccc2c(ccn2-c2cccc(Cl)c2)c1)N1CCCCC1` [drawing 112], the pIC50 in series [5] (setting [6]) was 9.30.

Consider `COc1cc(C(=O)N2CCCCC2)ccc1COc1ccccc1Cl` [drawing 115], for which the pIC50 in series [5] (setting [7]) was 8.07.

Turning to `COc1ccccc1C(=O)N(C)c1ccc(C(=O)N2CCCCC2)cc1` [drawing 116], the pIC50 in series [5] (setting [7]) was 5.64.

For the compound `O=C(c1ccc(COc2ccccc2Cl)cc1)N1CCCCC1` [drawing 117], in series [5] (setting [7]), the pIC50 was 7.73.

Turning to `COc1ccccc1C(=O)Nc1ccc(C(=O)N2CCCCC2)cc1` [drawing 118], the pIC50 in series [5] (setting [7]) is 7.57.

For the compound `O=C(c1ccc(COc2ccccc2Br)cc1)N1CCCCC1` [drawing 120], the pIC50 in series [5] (setting [7]) was 8.51.
